Activity calls are given as the source filed them.
Legend:
[1] = molecular target: T1, Bile acid receptor (Homo sapiens) (UniProt Q96RI1); test: Binding affinity to human GTS-tagged FXR LBD using fluorescein-tagged SRC2-2 at 10 nM after 15 to 30 mins by TR-FRET assay in presence of fexaramine
T1 sequence (whole entry): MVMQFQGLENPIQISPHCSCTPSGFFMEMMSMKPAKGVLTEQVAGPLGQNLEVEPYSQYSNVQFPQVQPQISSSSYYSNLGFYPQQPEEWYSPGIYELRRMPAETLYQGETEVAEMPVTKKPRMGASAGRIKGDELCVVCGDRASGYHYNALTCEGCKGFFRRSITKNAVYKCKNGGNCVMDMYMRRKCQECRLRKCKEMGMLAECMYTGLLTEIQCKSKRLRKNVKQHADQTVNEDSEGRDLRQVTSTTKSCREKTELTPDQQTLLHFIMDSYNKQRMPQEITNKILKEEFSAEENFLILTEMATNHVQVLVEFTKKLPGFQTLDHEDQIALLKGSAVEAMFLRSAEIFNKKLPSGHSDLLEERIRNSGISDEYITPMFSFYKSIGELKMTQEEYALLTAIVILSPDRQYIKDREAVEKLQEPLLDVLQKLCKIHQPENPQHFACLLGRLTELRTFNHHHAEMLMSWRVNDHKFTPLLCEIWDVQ

[2] = molecular target: T1, Bile acid receptor (Homo sapiens); test: Binding affinity to human GTS-tagged FXR LBD using fluorescein-tagged SRC2-2 at 10 nM after 15 to 30 mins by TR-FRET assay
[3] = molecular target: T1, Bile acid receptor (Homo sapiens); test: Binding affinity to human GTS-tagged FXR LBD using fluorescein-tagged SRC2-2 at 10 nM after 15 to 30 mins by TR-FRET assay in presence of GW4064

Measured: Activity

CC(C)c1onc(-c2c(Cl)cccc2Cl)c1COc1ccc(/C=C/c2cccc(C(=O)NNC(=S)Nc3ccc(-c4c5ccc(=O)cc-5oc5cc(O)ccc45)c(C(=O)O)c3)c2)c(Cl)c1
active: [1] | [2] | [3]
